Data taken from the supplement of paper PMC10307832.

Columns and labels:
Experiment in all cases: relative viability (nuclei count vs DMSO), 5 days (fraction); higher = more cells survive
ABC-1 = test system: ABC-1
How it was run: (§1)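 Relative viability is defined as nuclei in treated wells over nuclei in vehicle wells. Duplicate plates were run and medians reported. Lung cancer cell lines in 1536-well plates were dosed by pin tool one day after seeding, with one drug or with a fixed anchor-drug dose plus five library-drug doses (not always all listed) in √10 steps, and nuclei were counted after 5 days.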

CAL-12T = test system: CAL-12T
How it was run: as §1

HCC-366 = test system: HCC-366
How it was run: as §1

HCC-78 = test system: HCC-78
How it was run: as §1

LC-2-ad = test system: LC-2-ad
How it was run: as §1

LOU-NH91 = test system: LOU-NH91
How it was run: as §1

LU99A = test system: LU99A
How it was run: as §1

NCI-H1395 = test system: NCI-H1395
How it was run: as §1

NCI-H1651 = test system: NCI-H1651
How it was run: as §1

NCI-H1734 = test system: NCI-H1734
How it was run: as §1

NCI-H1755 = test system: NCI-H1755
How it was run: as §1

NCI-H1793 = test system: NCI-H1793
How it was run: as §1

NCI-H1944 = test system: NCI-H1944
How it was run: as §1

NCI-H2087 = test system: NCI-H2087
How it was run: as §1

NCI-H2228 = test system: NCI-H2228
How it was run: as §1

NCI-H2405 = test system: NCI-H2405
How it was run: as §1

NCI-H3122 = test system: NCI-H3122
How it was run: as §1

NCI-H460 = test system: NCI-H460
How it was run: as §1

PC-3 [JPC-3] = test system: PC-3 [JPC-3]
How it was run: as §1

RERF-LC-KJ = test system: RERF-LC-KJ
How it was run: as §1

UMC-11 = test system: UMC-11
How it was run: as §1

In the case of CC1(C)CCC(c2ccc(Cl)cc2)=C(CN2CCN(c3ccc(C(=O)NS(=O)(=O)c4ccc(N[C@H](CCN5CCOCC5)CSc5ccccc5)c(S(=O)(=O)C(F)(F)F)c4)cc3)CC2)C1 [Navitoclax] + C[C@]1(O)C[C@@H](c2nc(-c3ccc4ccc(-c5ccccc5)nc4c3)c3c(N)nccn32)C1 [Linsitinib] (partner 1 µM), the relative viability (ABC-1; first compound 0.005 µM) is reported as 0.641, the relative viability (ABC-1; first compound 0.01581 µM) is reported as 0.976 and the relative viability (ABC-1; first compound 0.05 µM) is reported as 0.81. It also gave a relative viability (ABC-1; first compound 0.1581 µM) of 0.703, a relative viability (ABC-1; first compound 0.5 µM) of 0.708 and a relative viability (CAL-12T; first compound 0.005 µM) of 0.849. It also gave a relative viability (CAL-12T; first compound 0.01581 µM) of 0.937, a relative viability (CAL-12T; first compound 0.05 µM) of 0.775 and a relative viability (CAL-12T; first compound 0.1581 µM) of 0.736. It also gave a relative viability (CAL-12T; first compound 0.5 µM) of 0.726, a relative viability (HCC-366; first compound 0.005 µM) of 0.672 and a relative viability (HCC-366; first compound 0.01581 µM) of 0.728. It also gave a relative viability (HCC-366; first compound 0.05 µM) of 0.155, a relative viability (HCC-366; first compound 0.1581 µM) of 0.615 and a relative viability (HCC-366; first compound 0.5 µM) of 0.449. It also gave a relative viability (HCC-78; first compound 0.005 µM) of 0.468, a relative viability (HCC-78; first compound 0.01581 µM) of 0.604 and a relative viability (HCC-78; first compound 0.1581 µM) of 0.523. It also gave a relative viability (HCC-78; first compound 0.5 µM) of 0.576, a relative viability (LC-2-ad; first compound 0.005 µM) of 0.853 and a relative viability (LC-2-ad; first compound 0.01581 µM) of 0.904. The relative viability (LC-2-ad; first compound 0.05 µM) was 0.787, the relative viability (LC-2-ad; first compound 0.1581 µM) was 0.789 and the relative viability (LC-2-ad; first compound 0.5 µM) was 0.796. It also gave a relative viability (LOU-NH91; first compound 0.005 µM) of 0.974, a relative viability (LOU-NH91; first compound 0.01581 µM) of 0.999 and a relative viability (LOU-NH91; first compound 0.05 µM) of 0.933. For the same compound, the relative viability (LOU-NH91; first compound 0.1581 µM) was 1.02, the relative viability (LOU-NH91; first compound 0.5 µM) was 0.842 and the relative viability (LU99A; first compound 0.005 µM) was 0.622. For the same compound, the relative viability (LU99A; first compound 0.01581 µM) was 0.67, the relative viability (LU99A; first compound 0.05 µM) was 0.444 and the relative viability (LU99A; first compound 0.1581 µM) was 0.543. It also gave a relative viability (LU99A; first compound 0.5 µM) of 0.522, a relative viability (NCI-H1395; first compound 0.005 µM) of 0.938 and a relative viability (NCI-H1395; first compound 0.01581 µM) of 1.34. For the same compound, the relative viability (NCI-H1395; first compound 0.05 µM) was 1.08, the relative viability (NCI-H1395; first compound 0.1581 µM) was 1.13 and the relative viability (NCI-H1395; first compound 0.5 µM) was 1.27. For the same compound, the relative viability (NCI-H1651; first compound 0.005 µM) was 0.945, the relative viability (NCI-H1651; first compound 0.01581 µM) was 1.25 and the relative viability (NCI-H1651; first compound 0.1581 µM) was 0.966. The relative viability (NCI-H1651; first compound 0.5 µM) was 0.937, the relative viability (NCI-H1734; first compound 0.005 µM) was 0.834 and the relative viability (NCI-H1734; first compound 0.01581 µM) was 0.948. For the same compound, the relative viability (NCI-H1734; first compound 0.1581 µM) was 0.797, the relative viability (NCI-H1734; first compound 0.5 µM) was 0.857 and the relative viability (NCI-H1755; first compound 0.005 µM) was 0.969. It also gave a relative viability (NCI-H1755; first compound 0.01581 µM) of 0.993, a relative viability (NCI-H1755; first compound 0.05 µM) of 0.954 and a relative viability (NCI-H1755; first compound 0.1581 µM) of 0.968. The relative viability (NCI-H1755; first compound 0.5 µM) was 1.02, the relative viability (NCI-H1793; first compound 0.005 µM) was 0.97 and the relative viability (NCI-H1793; first compound 0.01581 µM) was 1.17. For the same compound, the relative viability (NCI-H1793; first compound 0.05 µM) was 0.643, the relative viability (NCI-H1793; first compound 0.1581 µM) was 0.834 and the relative viability (NCI-H1793; first compound 0.5 µM) was 0.766. It also gave a relative viability (NCI-H1944; first compound 0.005 µM) of 1.19, a relative viability (NCI-H1944; first compound 0.01581 µM) of 1.33 and a relative viability (NCI-H1944; first compound 0.05 µM) of 1.01. For the same compound, the relative viability (NCI-H1944; first compound 0.1581 µM) was 1.19, the relative viability (NCI-H1944; first compound 0.5 µM) was 1.17 and the relative viability (NCI-H2087; first compound 0.005 µM) was 0.919. The relative viability (NCI-H2087; first compound 0.01581 µM) was 0.898, the relative viability (NCI-H2087; first compound 0.05 µM) was 0.956 and the relative viability (NCI-H2087; first compound 0.1581 µM) was 1.14. The relative viability (NCI-H2087; first compound 0.5 µM) was 0.871, the relative viability (NCI-H2228; first compound 0.005 µM) was 0.877 and the relative viability (NCI-H2228; first compound 0.01581 µM) was 0.81. For the same compound, the relative viability (NCI-H2228; first compound 0.05 µM) was 0.623, the relative viability (NCI-H2228; first compound 0.1581 µM) was 0.626 and the relative viability (NCI-H2228; first compound 0.5 µM) was 0.639. It also gave a relative viability (NCI-H2405; first compound 0.005 µM) of 0.899, a relative viability (NCI-H2405; first compound 0.01581 µM) of 1.02 and a relative viability (NCI-H2405; first compound 0.05 µM) of 0.922. The relative viability (NCI-H2405; first compound 0.1581 µM) was 0.937, the relative viability (NCI-H2405; first compound 0.5 µM) was 0.88 and the relative viability (NCI-H3122; first compound 0.005 µM) was 1.11. It also gave a relative viability (NCI-H3122; first compound 0.01581 µM) of 1.08, a relative viability (NCI-H3122; first compound 0.05 µM) of 1.13 and a relative viability (NCI-H3122; first compound 0.1581 µM) of 0.985. For the same compound, the relative viability (NCI-H3122; first compound 0.5 µM) was 1.02, the relative viability (NCI-H460; first compound 0.005 µM) was 0.77 and the relative viability (NCI-H460; first compound 0.01581 µM) was 0.825. It also gave a relative viability (NCI-H460; first compound 0.05 µM) of 0.919, a relative viability (NCI-H460; first compound 0.1581 µM) of 0.896 and a relative viability (NCI-H460; first compound 0.5 µM) of 0.744. For the same compound, the relative viability (PC-3 [JPC-3]; first compound 0.005 µM) was 0.964, the relative viability (PC-3 [JPC-3]; first compound 0.01581 µM) was 0.996 and the relative viability (PC-3 [JPC-3]; first compound 0.05 µM) was 0.996. For the same compound, the relative viability (PC-3 [JPC-3]; first compound 0.1581 µM) was 0.983, the relative viability (PC-3 [JPC-3]; first compound 0.5 µM) was 0.969 and the relative viability (RERF-LC-KJ; first compound 0.005 µM) was 0.905. The relative viability (RERF-LC-KJ; first compound 0.01581 µM) was 0.859, the relative viability (RERF-LC-KJ; first compound 0.05 µM) was 0.927 and the relative viability (RERF-LC-KJ; first compound 0.1581 µM) was 0.915. For the same compound, the relative viability (RERF-LC-KJ; first compound 0.5 µM) was 0.904, the relative viability (UMC-11; first compound 0.005 µM) was 0.97 and the relative viability (UMC-11; first compound 0.01581 µM) was 1.03. The relative viability (UMC-11; first compound 0.1581 µM) was 1.01 and the relative viability (UMC-11; first compound 0.5 µM) was 0.893.
